# Measurements published in US5380724A, “Piperazine and homopiperazine derivatives, pharmaceutical compositions containing them and process for preparing same” (Gyogyszerkutato Intezet KFT, priority 1992, dated 1995).
# How the values were obtained:
# [1] = test system: ischemia induced weight increase of the small intestine; experiment: inhibition of ischemia induced weight increase of a definite section in the small intestine of rats; format: in vivo; settings: Rattus norvegicus, 25 mg/kg oral
# Procedure: 2. […] The percentage of inhibition observed after administration of a 25 mg/kg oral dose of the compounds of the invention or of the reference compounds is shown in Table 5.
# acute toxicity in rats = format: in vivo; settings: rat, in vivo, oral
# rats = experiment: acute toxicity in rats; format: in vivo; settings: 1000 mg/kg oral
# acute brain injury = experiment: inhibition of acute brain injury of mice (improvement in the neurological state); format: in vivo; settings: intravenous
# Excerpt: 1. […] 68, 456 (1988)]. The doses of the test compounds administered by the intravenous route and the percentage of improvement in the neurological state are summarized in Table 4.
# [2] = test system: rat brain homogenate (ferrous ion dependent lipid peroxidation); experiment: ferrous ion dependent lipid peroxidation inhibitory activity on rat brain homogenate (thiobarbituric acid reactive substances); format: biochemical; settings: Fe2+ dependent lipid peroxidation, TBARS
# Procedure: 1. The ferrous ion dependent lipid peroxidation inhibitory activity was measured on rat brain homogenate by using the method descibed by J. M. Braughler et al., [J. Biol. Chem. 262, 10438 (1987)] and J. A. Buege and S. D. […] The IC50 value is defined as the concentration of a test substance which reduces by 50% the amount of the thiobarbituric acid reactive substances (chiefly malondialdehyde) considered to be a characteristic parameter of lipid peroxidation.
# [3] = test system: arachidonic acid (ferrous ion dependent peroxidation); experiment: inhibition of the ferrous ion dependent peroxidation of arachidonic acid; format: biochemical; settings: Fe2+ dependent peroxidation of arachidonic acid
# Procedure: 2. The inhibition of the ferrous ion dependent peroxidation of arachidonic acid was also measured by the method of J. M. Braughler et al. [J. Biol. Chem. 262, 10438 (1987)] and J. A. Buege and S. D. Aust [Methods in Enzymology 52, 302 (1978)]. The IC50 values (expressed in micromols) of some compounds of the invention, further those of the reference compounds determined in this test are shown in Table 2.
# [4] = test system: NADPH dependent lipid peroxidation; experiment: inhibition of the NADPH dependent lipid peroxidation; format: biochemical
# Procedure: 3. Inhibiton of the NADPH dependent lipid peroxidation was measured according to T. J. Player and A. A. Horton [J. Neurochem. 37, 422 (1981)] and Z. Duniec [Biochem. Pharmacol. 32, 2283 (1983)]. The IC50 values (expressed in micromols) of some compounds of the invention, further those of the reference compounds determined in this test are given in Table 3.
IC50 [2],SMILES,inhibition in vivo at 25 mg/kg [1],also measured
–,c1ccc(C(c2ccccc2)(c2ccccc2)N2CCN(c3cc(N4CCCC4)nc(N4CCCC4)n3)CC2)cc1 [Example 10],56%,LD50 (acute toxicity in rats): > 1000 mg/kg; death of treated animals (rats): did not provoke death of any of the treated animals
18 µM,Nc1cc(N2CCN(C(c3ccccc3)(c3ccccc3)c3ccccc3Cl)CC2)nc(N)n1 [Example 12],52%,Improvement (in the neurological state) (acute brain injury; 10 mg/kg): 46%
7 µM,"Cc1c(C)c2c(c(C)c1O)CCC(C)(CCCC(C)CCCC(C)CCCC(C)C)O2 (stereo not drawn) [α-tocopherol, reference compound]",–,IC50 [3]: 2 µM; IC50 [4]: > 100 µM; Improvement (in the neurological state) (acute brain injury; 30 mg/kg): 97%
–,CCCCCCCCCCCCCCCCCCN1CCN(c2cc(N)nc(N)n2)CC1 [Example 4],46%,–
–,"Nc1nc(N2CCNCC2)c2nc(-c3ccccc3)c(N)nc2n1 [Example 59, 1-(2,7-Diamino-6-phenyl-4-pteridinyl)piperazine]",30%,–
–,"Nc1nc2nc(N3CCNCC3)nc(N)c2nc1-c1ccccc1 [Example 58, 1-(4,7-Diamino-6-phenyl-2-pteridinyl)piperazine]",–,IC50 [3]: 38 µM
–,CCCCCCCCCCCCCCCCCC(=O)N1CCN(c2cc(N)nc(N)n2)CC1 [Example 7],34%,–
52 µM,"C=CCCCCCCCCC(=O)N1CCN(c2cc(N)nc(N)n2)CC1 [Example 3, 1-(10-Undecenoyl)-4-(2,6-diamino-4-pyrimidinyl)-piperazine]",31%,–
–,Nc1cc(N2CCN(CC(O)COc3ccc4c(c3)CCCC4=O)CC2)nc(N)n1 (centres unmarked) [Example 28],64%,LD50 (acute toxicity in rats): > 1000 mg/kg; death of treated animals (rats): did not provoke death of any of the treated animals
–,Nc1nc(N)c2nc(-c3ccc(OCC(O)CN4CCN(C(c5ccccc5)(c5ccccc5)c5ccccc5Cl)CC4)cc3)c(N)nc2n1 (centres unmarked) [Example 39],34%,–
–,"Nc1nc(N)c2nc(-c3ccc(OCC(O)CN4CCN(C56CC7CC(CC(C7)C5)C6)CC4)cc3)c(N)nc2n1 (centres unmarked) [Example 37, 6-[4-[3-[4-(1-Adamantyl)-1-piperazinyl]-2-hydroxypropoxy]phenyl]-2,4,7-triaminopteridine]",35%,IC50 [3]: 17 µM
9 µM,OC(COc1cccc2ccccc12)CN1CCCN(c2cc(N3CCCC3)nc(N3CCCC3)n2)CC1 (centres unmarked) [Example 23],52%,IC50 [4]: 13 µM
0.3 µM,"Cc1c(C)c2c(c(C)c1O)CCC(C)(CN1CCN(c3cc(N4CCCC4)nc(N4CCCC4)n3)CC1)O2 (centres unmarked) [Example U78517F, 2-[[4-[2,6-di(1-pyrrolidinyl)-4-pyrimidinyl]-1-piperazinyl]methyl]-6-hydroxy-2,5,7,8-tetramethyl-3,4-dihydro-2H-1-benzopyrane, reference compound]",20%,IC50 [3]: > 50 µM; IC50 [4]: 0.7 µM; Improvement (in the neurological state) (acute brain injury; 20 mg/kg): 31%
–,CCCCCCCCCCCCCCCCCC(=O)N1CCCN(c2cc(N3CCCC3)nc(N3CCCC3)n2)CC1 [Example 6],25%,–
–,Nc1cc(N2CCN(C(=O)COc3ccc4ccccc4c3)CC2)nc(N)n1 [Example 34],69%,LD50 (acute toxicity in rats): > 1000 mg/kg; death of treated animals (rats): did not provoke death of any of the treated animals
–,Nc1nc2nc(N3CCN(C(c4ccccc4)(c4ccccc4)c4ccccc4Cl)CC3)nc(N)c2nc1-c1ccccc1 [Example 15],32%,–
–,Nc1nc(N)c2nc(-c3ccc(NC(=O)CN4CCNCC4)cc3)c(N)nc2n1 [Example 55],47%,–
–,Nc1nc(N)c2nc(-c3ccc(OCC(O)CN4CCCNCC4)cc3)c(N)nc2n1 (centres unmarked) [Example 51],–,IC50 [3]: 28 µM
–,"Nc1nc(N)c2nc(-c3ccc(NCCCN4CCNCC4)cc3)c(N)nc2n1 [Example 56, 6-[4-[3-(1-Piperazinyl)propylamino]phenyl]-2,4,7-triamino-pteridine]",44%,–

IC50 [2],SMILES,inhibition in vivo at 25 mg/kg [1],also measured
51 µM,"Nc1cc(N2CCN(C(c3ccccc3)(c3ccccc3)c3ccccc3)CC2)nc(N)n1 [Example 9, 1-Trityl-4-(2,6-diamino-4-pyrimidinyl)piperazine]",37%,–
13 µM,OC(COc1cccc2ccccc12)CN1CCN(c2cc(N3CCCC3)nc(N3CCCC3)n2)CC1 (centres unmarked) [Example 22],–,–
1 µM,"Cc1cc(C(C)(C)C)c(O)c(C(C)(C)C)c1 [BHT, 3,5-di(tert-butyl)-4-hydroxytoluene, reference compound]",–,IC50 [3]: > 100 µM; IC50 [4]: 2 µM
30 µM,O=C(COc1cccc2ccccc12)N1CCCN(c2cc(N3CCCC3)nc(N3CCCC3)n2)CC1 [Example 36],24%,–
–,"Nc1cc(N2CCN(C(=O)COc3cccc4ccccc34)CC2)nc(N)n1 [Example 31, 1-[2-(1-Naphthyloxy)acetyl]-4-(2,6-diamino-4-pyrimidinyl)piperazine]",79%,–
–,"Nc1nc2nc(N3CCN(C45CC6CC(CC(C6)C4)C5)CC3)nc(N)c2nc1-c1ccccc1 [Example 57, 1-(1-Adamantyl)-4-(4,7-diamino-6-phenyl-2-pteridinyl)piperazine]",–,IC50 [3]: 49 µM
–,Nc1nc(N)c2nc(C(=O)N3CCN(C(c4ccccc4)(c4ccccc4)c4ccccc4Cl)CC3)c(N)nc2n1 [Example 16],45%,–
–,CN(CC(O)CN1CCNCC1)c1ccc(-c2nc3c(N)nc(N)nc3nc2N)cc1 (centres unmarked) [Example 53],56%,IC50 [3]: 0.9 µM
–,Nc1cc(N2CCN(CC(O)COc3ccc4ccccc4c3)CC2)nc(N)n1 (centres unmarked) [Example 24],20%,–
–,c1ccc(C(c2ccccc2)(c2ccccc2)N2CCCN(c3cc(N4CCCC4)nc(N4CCCC4)n3)CC2)cc1 [Example 11],57%,–
12 µM,O=C1CCCc2cc(OCC(O)CN3CCCN(c4cc(N5CCCC5)nc(N5CCCC5)n4)CC3)ccc21 (centres unmarked) [Example 30],42%,IC50 [4]: 16 µM
–,Nc1nc(N)c2nc(-c3ccc(SCC(O)CN4CCNCC4)cc3)c(N)nc2n1 (centres unmarked) [Example 54],56%,IC50 [3]: 17 µM
20 µM,"O=C(COc1cccc2ccccc12)N1CCN(c2cc(N3CCCC3)nc(N3CCCC3)n2)CC1 [Example 33, 1-[2-(1-Naphthyloxy)acetyl]-4-[2,6-di(1-pyrrolidinyl)-4-pyrimidinyl]piperazine]",53%,–
19 µM,OC(COc1ccc2ccccc2c1)CN1CCN(c2cc(N3CCCC3)nc(N3CCCC3)n2)CC1 (centres unmarked) [Example 26],45%,IC50 [4]: 59 µM
–,"O=c1[nH]ncc(N2CCN(C34CC5CC(CC(C5)C3)C4)CC2)c1Cl [Example 18, 1-(1-Adamantyl)-4-(4-chloro-3-oxo-2,3-dihydro-5-pyridazinyl)piperazine]",31%,–
–,Nc1nc(N)c2nc(-c3ccc(NCC(O)CN4CCNCC4)cc3)c(N)nc2n1 (centres unmarked) [Example 52],34%,IC50 [3]: 12 µM
94 µM,"Nc1cc(N2CCN(CC(O)COc3cccc4ccccc34)CC2)nc(N)n1 (centres unmarked) [Example 20, 1-[2-Hydroxy-3-(1-naphthyloxy)-propyl]-4-(2,6-diamino-4-pyrimidinyl)piperazine]",28%,–
–,Nc1cc(N2CCCN(CC(O)COc3ccc4ccccc4c3)CC2)nc(N)n1 (centres unmarked) [Example 25],35%,–

SMILES,IC50 [2],inhibition in vivo at 25 mg/kg [1],also measured
"C=CCCCCCCCCC(=O)N1CCN(c2cc(N3CCCC3)nc(N3CCCC3)n2)CC1 [Example 1, 1-(10-Undecenoyl)-4-[2,6-di(1-pyrrolidinyl)-4-pyrimidinyl]piperazine]",30 µM,55%,LD50 (acute toxicity in rats): > 1000 mg/kg; death of treated animals (rats): did not provoke death of any of the treated animals; Improvement (in the neurological state) (acute brain injury; 10 mg/kg): 68%
"C[C@@H]1C[C@H]2[C@@H]3CCC4=CC(=O)C=C[C@]4(C)C3=CC[C@]2(C)[C@H]1C(=O)CN1CCN(c2cc(N3CCCC3)nc(N3CCCC3)n2)CC1 [Example U74006F, 21-[4-[2,6-di(1-pyrrolidinyl)-4-pyrimidinyl]-1-piperazinyl]-16α-methyl-pregna-1,4,9(11)-triene-3,20-dione, reference compound]",39 µM,59%,IC50 [3]: > 100 µM; LD50 (acute toxicity in rats): > 1000 mg/kg; IC50 [4]: > 100 µM; Improvement (in the neurological state) (acute brain injury; 30 mg/kg): 77%
